According to BigSolDB 2.1:

O=C(O)C(O)c1ccccc1 (racemic)
Details	solubility (mole fraction)
in ethanol, 294.65 K	0.247
in ethanol, 299.45 K	0.261
in ethanol, 303.85 K	0.274
in ethanol, 308.25 K	0.292
in ethanol, 314.65 K	0.325
in ethanol, 319.15 K	0.349
in ethanol, 324.85 K	0.376
in ethanol, 328.55 K	0.394
in ethanol, 333.45 K	0.418
in ethanol, 338.15 K	0.439
in isopropanol, 293.15 K	0.213
in isopropanol, 298.15 K	0.236
in isopropanol, 305.15 K	0.262
in isopropanol, 308.15 K	0.272
in isopropanol, 313.15 K	0.294
in isopropanol, 318.15 K	0.315
in isopropanol, 323.15 K	0.338
in isopropanol, 328.15 K	0.362
in isopropanol, 333.15 K	0.383
in isopropanol, 338.15 K	0.41
in methanol, 283.15 K	0.236
in methanol, 288.15 K	0.243
in methanol, 293.15 K	0.256
in methanol, 298.15 K	0.265
in methanol, 304.65 K	0.281
in methanol, 308.15 K	0.293
in methanol, 313.15 K	0.308
in methanol, 318.15 K	0.323
in n-propanol, 293.15 K	0.196
in n-propanol, 298.15 K	0.213
in n-propanol, 305.35 K	0.237
in n-propanol, 308.15 K	0.252
in n-propanol, 313.15 K	0.275
in n-propanol, 318.15 K	0.3
in n-propanol, 323.15 K	0.325
in n-propanol, 328.15 K	0.347
in n-propanol, 333.15 K	0.368
in n-propanol, 338.15 K	0.39
in water, 293.15 K	0.018
in water, 298.15 K	0.0233
in water, 303.15 K	0.037
in water, 308.15 K	0.0656
in water, 313.15 K	0.11
in water, 318.15 K	0.16
in water, 323.15 K	0.206
in water, 328.15 K	0.237
in water, 333.15 K	0.278
in water, 338.15 K	0.317
